# Measurements: publication PMC8563958 (Cell Research, 2021)
# Where two headings read alike, the source gives them in different places.
# What was measured:
# [1] = ref not given, cited from earlier work
# Source text: In contrast to other M ...
# wild-type MC4R (WT) = biological target: T1, wild-type MC4R (WT) (Homo sapiens, UniProt P32245); assay type: cell-based; conditions: set as 100 %, 1 µM ligand, HEK293, 40 min 37 °C, 1 mM IBMX, 4-8 experiments in triplicates
# T1 construct: expressed in transfected cells; host or cells: HEK293 (transient, vector pcDps)
# MC4R H158A = biological target: T2, MC4R H158A (Homo sapiens, UniProt P32245, H158A); assay type: cell-based
# T2 construct: expressed in transfected cells; host or cells: HEK293 (transient, vector pcDps)
# [2] = biological target: MC4R D122S, N-terminally HA-tagged (human) (UniProt P32245)
# MC1R = conditions: cited from earlier work
# MC4R L133 to methionine = conditions: cited from earlier work
# MC5R = MC5R with V126; cited from earlier work
# MC4R [3] = conditions: cited from earlier work
# Source text: (Fig. 1a). The binding mode of SHU9119 is generally like that of NDP-α-MSH. […] W6^3 is also clamped by H264^6.54 (TM6) and S188^EL2, and R5^2 connects TM3−TM4 and EL2 through hydrogen bonds with S188^EL2 and I185^4.61 (Fig. 2i; Supplementary information, Fig. S11 and Table S4).
# MC4R [4] = test system: MC4R; design: method as in earlier work; conditions: ref 4 (AgRP); ref not given for MSH; cited from earlier work
# [5] = biological target: wild-type MC4R, N-terminally HA-tagged (signalling construct) (human) (UniProt P32245)
molecule,measurement,setting,value
CC(=O)N[C@@H](CCCNC(=N)N)C(=O)N[C@H]1CSSC[C@@H](C(N)=O)NC(=O)[C@H](Cc2c[nH]c3ccccc23)NC(=O)[C@H](CCCNC(=N)N)NC(=O)[C@@H](Cc2ccccc2)NC(=O)[C@H](Cc2c[nH]cn2)NC(=O)[C@@H](C)NC1=O [setmelanotide],Gs signaling-related adverse effects,[1]; in contrast to other MC4R agonists,"does not cause common Gs signaling-related adverse effects, such as tachycardia or hypertension"
same,adverse effects,"[1]; rare, moderate",skin hyperpigmentation
same,Emax cAMP,wild-type MC4R (WT),100 % of WT
same,maximum Gq/11 signaling,MC4R H158A,50%
NDP-α-MSH (peptide),"EC50 of cAMP accumulation (Gs signaling), transfected HEK293 cells",[2],9 nM
SHU9119,mode of action at MC1R,"MC1R; MC1R with M128, 37 (ref 36)",partial agonist
same,mode of action in MC1R–Gs complex,MC1R; cryo-EM structure of active MC1R–Gs complex,acting as an agonist
same,mode of action at L133M mutant,MC4R L133 to methionine,reverses SHU9119 to an agonist
same,mode of action at MC5R,MC5R,partial agonist
same,mode of action at MC4R,MC4R [3]; antagonism,antagonizes the MC4R
"agouti-related peptide (SSRRCVRLHESCLGQQVPCCDPCATCYCRFFNAFCYCRKLGTAMNPCSRT; UniProt O00253 83-132, looked up) [AgRP]",mode of action at MC4R,MC4R [3]; reducing high levels of basal signaling activity,inverse agonist
same,effect on appetite,MC4R [4],orexigenic effects
melanotan II,mode of action at MC4R,MC4R [3],agonizes MC4R
same,mode of action at MC4R,MC4R [3]; listed as melatonan II,agonistic effects
setmelanotide (peptide),"potency (EC50) of cAMP accumulation, transfected HEK293 cells",[5],1.2 nM
β-MSH,effect on appetite,MC4R [4],appetite-reducing effects
